Experimental data published in ChEMBL document CHEMBL5209566, “Superclomeleon biosensor-based assay for SLC26A9 using HEK293 SLC26A9 JumpIn OE cells” (2022).

Target: T1, Solute carrier family 26 member 9 (Homo sapiens) (UniProt Q7LBE3)
T1 sequence (whole entry): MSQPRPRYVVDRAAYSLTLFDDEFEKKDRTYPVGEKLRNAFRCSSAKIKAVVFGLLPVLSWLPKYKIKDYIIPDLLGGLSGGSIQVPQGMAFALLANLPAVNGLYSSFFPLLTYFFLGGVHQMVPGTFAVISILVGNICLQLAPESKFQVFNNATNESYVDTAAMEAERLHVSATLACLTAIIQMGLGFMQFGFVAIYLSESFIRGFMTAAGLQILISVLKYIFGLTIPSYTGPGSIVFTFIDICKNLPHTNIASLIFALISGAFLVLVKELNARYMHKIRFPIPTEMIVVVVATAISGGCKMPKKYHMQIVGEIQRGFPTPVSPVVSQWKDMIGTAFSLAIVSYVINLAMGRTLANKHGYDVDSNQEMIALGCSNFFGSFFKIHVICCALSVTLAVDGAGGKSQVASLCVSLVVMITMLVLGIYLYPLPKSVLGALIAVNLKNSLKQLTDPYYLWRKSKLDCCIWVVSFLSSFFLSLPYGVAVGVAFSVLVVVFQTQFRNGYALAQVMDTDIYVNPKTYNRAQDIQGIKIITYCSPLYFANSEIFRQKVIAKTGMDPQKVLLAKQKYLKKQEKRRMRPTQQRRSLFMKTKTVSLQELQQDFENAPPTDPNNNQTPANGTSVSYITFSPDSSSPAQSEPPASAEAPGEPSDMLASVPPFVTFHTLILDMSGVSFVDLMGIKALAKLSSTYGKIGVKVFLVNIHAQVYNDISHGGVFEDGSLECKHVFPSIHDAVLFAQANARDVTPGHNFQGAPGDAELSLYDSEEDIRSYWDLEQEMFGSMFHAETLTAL
Experiment: Chloride uptake by the Anion Transporter/Exchanger Protein 9 (SLC26A9) as assessed by a Cl- sensitive FRET (Fluorescence Resonance Energy Transfer) sensor (SuperClomeleon) in HEK-293 cells stably transfected with SLC26A9 (PubChem AID: 1794832)
Assay type: functional, cell-based
Details: HEK293

SMILES | proof of principle | Inhibition (500 µM)
Cl | Substrate. In Comparison To Wild-Type, Cells Expressing Slc26A9 Showed A Specific Transporter Activity, Upon Substrate Addition, Detected As Significantly Higher Sensor Fluorescence Quenching. | –
O=C(O)c1cccnc1Nc1cccc(C(F)(F)F)c1 | – | > 30%
